Earlier results, collected in patent US20240299434A1, “URIDINE TRIACETATE AMORPHOUS FORMULATION” (PHARMA CINQ. LLC, priority 2021, published 2024).
Where two headings read alike, the source gives them in different places.

What was measured:
[1] = humans
[2] = mice

SMILES	solubility in water	oral bioavailability [1]	oral bioavailability [2]
CC(=O)OC[C@H]1O[C@@H](n2ccc(=O)[nH]c2=O)[C@H](OC(C)=O)[C@@H]1OC(C)=O [Uridine triacetate, 2′,3′,5′-Tri-O-acetyluridine]	approximately 10 milligrams per milliliter	–	–
O=c1ccn([C@@H]2O[C@H](CO)[C@@H](O)[C@H]2O)c(=O)[nH]1 [uridine]	–	approximately 7%	approximately 7%
